Experimental data taken from the NIST ThermoML archive (doi:10.1021/je025566c).

Details: Liquid

CC(O)c1ccccc1 (centres undefined) [1-phenylethanol]
Details | vapor or sublimation pressure [kPa]
353.15 K | 0.76
358.41 K | 1.033
362.36 K | 1.296
366.37 K | 1.613
371.46 K | 2.112
373.15 K | 2.301
377.83 K | 2.909
382.98 K | 3.728
387.28 K | 4.557
393.15 K | 5.934
393.34 K | 5.985
398.01 K | 7.325

CCOCCO [2-ethoxyethan-1-ol]
Details | vapor or sublimation pressure [kPa]
333.15 K | 5.3
343.15 K | 8.646
353.15 K | 13.62

CCCCOC=O [butyl methanoate]
Details | vapor or sublimation pressure [kPa]
313.16 K | 7.978
318.33 K | 10.19
323.32 K | 12.79
328.57 K | 16.08
333.14 K | 19.5
333.15 K | 19.5
343.14 K | 29.1
343.15 K | 29.1
353.14 K | 42.24
353.15 K | 42.24
358.67 K | 51.34

Oc1ccccc1 [phenol]
Details | vapor or sublimation pressure [kPa]
353.15 K | 2.037
373.15 K | 5.541
393.15 K | 13.15
